Data from patent US20160272992A1, “PROTECTION OF PLANTS AGAINST OXIDATIVE STRESS” (priority 2013, published 2016).

How the values were obtained:
[1] = tested on: SIM/SMR promoters; test: SIM/SMR promoter:GUS transcriptional reporter lines; format: in vivo, Arabidopsis thaliana
Source text: SIM/SMR promoter sequences were amplified from genomic DNA by PCR using the primers described in Table 5. The product fragments were created with the Pfu DNA Polymerase Kit (Promega, Catalog #M7745), and were cloned into a pDONR P4-Plr entry vector by BP recombination cloning and subsequently transferred into the pMK7S*NFml4GW,0 destination vector by LR cloning, resulting in a transcriptional fusion between the promoter of the SMR genes and the nlsGFP-GUS fusion gene (Karimi et al., 2007). For the overexpression constructs, the SMR coding regions were amplified using primers described in Table 5, and cloned into the pDONR221 vector by BP recombination cloning and subsequently transferred into the pK2GW7 destination vector (Kamimi et al., 2002) by LR cloning. All constructs were transferred into the Agrobacterium tumefaciens C58C1RifR strain harboring the pMP90 plasmid. The obtained Agrobacterium strains were used to generate stably transformed Arabidopsis lines with the floral dip transformation method (Clough and Bent, 1998). Transgenic plants were obtained on kanamycin-containing medium and later transferred to soil for optimal seed production.
Complete seedlings or tissue cuttings were stained in multiwell plates (Falcon 3043; Becton Dickinson). GUS assays were performed as described by Beeckman and Engler (1994). Samples mounted in lactic acid were observed and photographed with a stereomicroscope (Olympus BX51 microscope) or with a differential interference contrast (DIC) microscope (Leica).
To confirm involvement of SIM/SMR genes in the genotoxic stress response, transcriptional reporter lines containing the putative upstream promoter sequences were constructed for all. After selection of representative reporter lines, one-week-old seedlings were transferred to control medium, or medium supplemented with HU (resulting into stalled replication forks) or bleomycin (causing DSBs).

[2] = tested on: root meristem material of seedlings; settings: 0.3 μg/mL bleomycin for 24 hours
Protocol: Seeds were plated on sterilized membranes and grown under a 16-hour light/8-hour dark regime at 21° C. After 2 days of germination and 5 days of growth, the membrane was transferred to MS medium containing 0.3 μg/mL bleomycin for 24 hours. Triplicate batches of root meristem material seedlings were harvested for total RNA preparation using the RNEASY® plant mini kit (Qiagen). Each of the different root tip RNA extracts were hybridized to 12 AFFYMETRIX® Arabidopsis Gene 1.0 ST Arrays according to manufacturer's instructions at the Nucleomics Core Facility (Leuven, Belgium; World Wide Web at nucleomics.be). Raw data were processed with the RMA algorithm (Irizarry et al., 2003) using the AFFYMETRIX® Power Tools and subsequently subjected to a Significance Analysis of Microarray (SAM) analysis with “MultiExperiment Viewer 4” (MeV4) of The Institute for Genome Research (TIGR) (Tusher et al., 2001). The imputation engine was set as 10-nearest neighbor imputer and the number of permutations was 100. Expression values were obtained by log 2-transforming the average value of the normalized signal intensities of the triplicate samples. Fold changes were obtained using the expression values of the treatment relative to the control samples. Genes with Q-values<0.1 and fold change>1.5 or <0.666 were retained for further analysis.

[3] = root meristem, treatment relative to control

**Q.** With bleomycin as the substance, how does the “induction of SMR6 reporter in root tips” value ([1]; one-week-old seedlings, 0.3 μg/mL bleomycin, GUS assay after 24 hours) read?
**A.** weak cell-specific induction

**Q.** And the “induction of SMR5 and SMR7 GUS reporters in the proliferating leaf” value ([1]; treated for 24 hours)?
**A.** induced

**Q.** And the “Bleomycin fold change, AT1G07500 (Siamese-related 5)” value [2, 3]?
**A.** 1.595

**Q.** And the “Bleomycin fold change, AT1G13330 (Hop2 homolog)” value [2, 3]?
**A.** 1.580

**Q.** What about the “Bleomycin fold change, AT1G17460 (TRF-like 3)” value [2, 3] of the same substance?
**A.** 1.681

**Q.** What about the “Bleomycin fold change, AT1G49030 (PLAC8 family protein)” value [2, 3] of the same substance?
**A.** 2.653

**Q.** And the “Bleomycin fold change, AT2G18600 (Ubiquitin-conjugating enzyme family protein)” value [2, 3]?
**A.** 1.972

**Q.** What about the “Bleomycin fold change, AT2G45460 (SMAD/FHA domain-containing protein)” value [2, 3] of the same substance?
**A.** 1.575

**Q.** And the “Bleomycin fold change, AT2G46610 (RNA-binding RRM/RBD/RNP motifs family protein)” value [2, 3]?
**A.** 1.546

**Q.** And the “Bleomycin fold change, AT3G07800 (Thymidine kinase)” value [2, 3]?
**A.** 2.759

**Q.** What about the “Bleomycin fold change, AT3G25250 (AGC kinase family protein)” value [2, 3] of the same substance?
**A.** 1.517

**Q.** And the “Bleomycin fold change, AT3G27060 (Ferritin/ribonucleotide reductase-like family protein)” value [2, 3]?
**A.** 1.970

**Q.** What about the “Bleomycin fold change, AT3G27620 (alternative oxidase 1C)” value [2, 3] of the same substance?
**A.** 1.883

**Q.** And the “Bleomycin fold change, AT3G27950 (GDSL-like Lipase/Acylhydrolase superfamily protein)” value [2, 3]?
**A.** 4.012

**Q.** What about the “Bleomycin fold change, AT4G02390 (Poly(ADP-ribose) polymerase)” value [2, 3] of the same substance?
**A.** 2.663

**Q.** What about the “Bleomycin fold change, AT4G04750 (Major facilitator superfamily protein)” value [2, 3] of the same substance?
**A.** 1.689

**Q.** What about the “Bleomycin fold change, AT4G05370 (BCS1 AAA-type ATPase)” value [2, 3] of the same substance?
**A.** 1.807

**Q.** What about the “Bleomycin fold change, AT4G15480 (UDP-Glycosyltransferase superfamily protein)” value [2, 3] of the same substance?
**A.** 2.394

**Q.** What about the “Bleomycin fold change, AT4G21070 (Breast cancer susceptibility1)” value [2, 3] of the same substance?
**A.** 2.386

**Q.** What about the “Bleomycin fold change, AT4G22960 (Unknown function DUF544)” value [2, 3] of the same substance?
**A.** 2.282

**Q.** And the “Bleomycin fold change, AT5G03780 (TRF-like 10)” value [2, 3]?
**A.** 1.600

**Q.** What about the “Bleomycin fold change, AT5G14920 (Gibberellin-regulated family protein)” value [2, 3] of the same substance?
**A.** 2.122

**Q.** What about the “Bleomycin fold change, AT5G20850 (RAS associated with diabetes protein 51)” value [2, 3] of the same substance?
**A.** 1.765

**Q.** What about the “Bleomycin fold change, AT5G24280 (Gamma-irradiation and mitomycin c induced 1)” value [2, 3] of the same substance?
**A.** 2.584

**Q.** What about the “Bleomycin fold change, AT5G25810 (Integrase-type DNA-binding superfamily protein)” value [2, 3] of the same substance?
**A.** 1.573

**Q.** And the “Bleomycin fold change, AT5G40840 (Rad21/Rec8-like family protein)” value [2, 3]?
**A.** 1.692

**Q.** What about the “Bleomycin fold change, AT5G48720 (X-ray induced transcript 1)” value [2, 3] of the same substance?
**A.** 2.228

**Q.** What about the “Bleomycin fold change, AT5G49110 (unknown protein)” value [2, 3] of the same substance?
**A.** 1.562

**Q.** What about the “Bleomycin fold change, AT5G49480 (Ca2+-binding protein 1)” value [2, 3] of the same substance?
**A.** 1.580

**Q.** And the “Bleomycin fold change, AT5G55490 (Gamete expressed protein 1)” value [2, 3]?
**A.** 2.407

**Q.** What about the “Bleomycin fold change, AT5G60100 (pseudo-response regulator 3)” value [2, 3] of the same substance?
**A.** 1.801

**Q.** What about the “Bleomycin fold change, AT5G60250 (Zinc finger C3HC4-type RING finger family protein)” value [2, 3] of the same substance?
**A.** 2.352

**Q.** And the “Bleomycin fold change, AT5G64060 (NAC domain containing protein 103)” value [2, 3]?
**A.** 2.153

**Q.** What about the “Bleomycin fold change, AT5G66130 (RADIATION SENSITIVE 17)” value [2, 3] of the same substance?
**A.** 1.627

**Q.** What about the “Bleomycin fold change, AT5G66985 (unknown protein)” value [2, 3] of the same substance?
**A.** 1.612

**Q.** What about the “induction of SMR7 (At3g27630) in the bleomycin experiment” value ([2]; Aragene array) of the same substance?
**A.** 5.68 fold
